Columns and labels:
Artemia = experiment: Toxicity to Artemia nauplii in ASTM sea water, 96 well plate serial dilution; type: in vivo, Artemia salina; details: 24 Hours; highest dilution in which all of the nauplii are dead; 25 °C
Procedure: Tests were conducted to determine the toxicity of the marine antifouling agents of the invention to Artemia. Artemia are indicative of hard fouling organisms.
Substitute ocean water was prepared following ASTM Method D 1141-90. The water was sterilized by filtration through a 0.22 micron cellulose acetate membrane filter. San Francisco Bay Brand® Artemia salina cysts were purchased from a local aquarium supply store. The cysts were hatched in a 250 mL Erlenmeyer flask. The Artemia cysts (0.2 g) were weighed into a sterilized flask. One hundred mL of sterile ASTM sea water was added to the flask. The flask was placed on an orbital shaker set at approximately 150 rotations per minute and 28 °C. After 24 hours, the contents of the flask were poured into a separatory funnel. The egg shells were separated from the Artemia nauplii (larvae), as the shells floated to the top. The nauplii were returned to the flask for another 24 hours shaking. The inoculum was prepared by pouring the nauplii into a crystallizing dish 48 hours after the cysts were originally placed on the shaker. After the nauplii congregated, they were taken up in a sterile serological pipette and transferred into another crystallizing dish. […] The number of nauplii in 3 to 4 wells was counted under a microscope. […]
Plates were read under a low magnification microscope 24 and 48 hours after the nauplii were added to the plate. […]

[1] = test system: Amphora coffeaeformis var. perpusilla; experiment: Toxicity to Amphora: growth inhibition by chlorophyll a concentration; type: cell-based; details: 96 hours at 20 °C, % inhibition of the mean control; for EC 50: dose effective at preventing 50% growth; for EC 100: dose effective at preventing 100% growth
Procedure: Tests were conducted to determine the toxicity of the marine antifouling agents of the invention to Amphora. Amphora are indicative of soft fouling organisms. Amphora coffeaeformis var. perpusilla was isolated from a natural biofilm and cultured axenically in Guillard's F2 medium. A log phase culture of Amphora was diluted with the F2 medium to give a chlorophyll a concentration of 0.25 µg/mL. Chlorophyll a was measured by passing a measured volume (FV) of cell culture through a 3 µm pore, 25 mm diameter cellulose nitrate filter. The filter plus trapped algal cells was transferred to a glass tube. A measured volume (SV) of DMSO solvent was added to the glass tube. The tubes were incubated for 1.5 hours in darkness. After incubation, the absorbance of the sample was read in a spectrophotometer at 630 and 664 nm against a DMSO/filter blank. The chlorophyll a concentration can be calculated using the following equation: Chlorophylla(µg/mL) = 11.47 x Abs664 - 0.4 x Abs630 x SV/FV [formula] Ten mL of the diluted culture was pipetted into glass tubes. Ten µL of marine antifouling agent or, in the case of controls, DMF was added to each glass tube. The tubes were incubated on an illuminated orbital shaker at 20 °C for 96 hours before the chlorophyll a concentration of each tube was measured Three replicates of each treatment were used. The effects of marine antifouling agents are calculated as % inhibition of the mean control. The EC 50 is the dose effective at preventing 50% growth. The EC 100 is the dose effective at preventing 100% growth.

Row | SMILES | Artemia LC 100 (Artemia) [ppm] | EC 50 [1] [ppm] | EC 100 [1] [ppm]
1 | CCCCCCCC[N+](CC#CBr)(CCCCCCCC)CCCCCCCC.O=S(=O)([O-])c1ccccc1 [Compound 18, trioctyl-(3-bromopropargyl)ammonium benzenesulfonate] | <8 | – | –
2 | CCCCCCCCCCCCCC[N+]1(CC#CI)CCCC1.Cc1ccc(S(=O)(=O)[O-])cc1 [Compound 36, 1-tetradecyl-1-(3-iodopropargyl)-pyrrolidinium 4-methylbenzenesulfonate] | 1 | 1.9 | 5
3 | CC1(C)C(=O)N(Cc2ccccc2)C(=O)N1CC#CI [Compound 138, 1-(3-iodopropargyl)-3-benzyl-5,5-dimethylhydantoin] | – | 2.5 | 20
4 | O=c1oc2ccccc2n1CC#CI [Compound 146, 3-(3-iodopropargyl)-2-benzoxazolone] | – | 3 | 20

— patent EP0835604A1, “Halopropargyl compounds as marine antifouling agents” (ROHM AND HAAS COMPANY, priority 1996, dated 1998)
